Source: patent US5939583A, “Substituted 4-biphenyl-4-hydroxybutyric acid derivatives as matrix metalloprotease inhibitors” (Bayer Corporation, priority 1997, dated 1999)

Columns and labels:
[1] = target: T1, Human recombinant gelatinase B (MMP-9) (Homo sapiens, UniProt P14780); assay type: biochemical; settings: P218 6 μM, pH 6.5, 25 min, 37° C.
T1 construct: made in house; host or cells: baculovirus protein expression system
Source text: P218 Fluorogenic Substrate
(§1) MMP Microfluorometric Profiling Assay.

[2] = target: T2, Human Recombinant gelatinase A (MMP-2) (Homo sapiens, UniProt P08253); assay type: biochemical; settings: P218 6 μM, pH 6.5, 25 min, 37° C.
T2 sequence (P08253 110-660): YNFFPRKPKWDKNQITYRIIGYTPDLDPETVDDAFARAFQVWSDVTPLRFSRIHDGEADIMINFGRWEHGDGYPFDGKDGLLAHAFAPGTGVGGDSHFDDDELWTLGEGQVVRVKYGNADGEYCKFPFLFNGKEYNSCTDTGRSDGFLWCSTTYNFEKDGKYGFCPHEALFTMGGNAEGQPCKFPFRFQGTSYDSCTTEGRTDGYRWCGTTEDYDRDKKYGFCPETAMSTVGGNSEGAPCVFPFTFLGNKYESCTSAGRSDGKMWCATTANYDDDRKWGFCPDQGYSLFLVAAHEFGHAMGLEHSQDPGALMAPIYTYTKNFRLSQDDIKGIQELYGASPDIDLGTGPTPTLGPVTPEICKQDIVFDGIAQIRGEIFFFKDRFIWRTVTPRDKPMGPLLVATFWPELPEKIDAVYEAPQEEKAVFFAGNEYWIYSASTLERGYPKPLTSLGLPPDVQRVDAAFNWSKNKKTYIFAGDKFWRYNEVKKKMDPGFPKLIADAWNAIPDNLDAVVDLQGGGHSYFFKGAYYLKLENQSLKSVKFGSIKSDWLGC

[3] = target: T3, Recombinant Human CHO Stromelysin (MMP-3) (Homo sapiens, UniProt P08254); assay type: biochemical; settings: P218 6 μM, pH 6.5, 25 min, 37° C.
T3 construct: made in house; host or cells: CHO
T3 sequence (P08254 100-477): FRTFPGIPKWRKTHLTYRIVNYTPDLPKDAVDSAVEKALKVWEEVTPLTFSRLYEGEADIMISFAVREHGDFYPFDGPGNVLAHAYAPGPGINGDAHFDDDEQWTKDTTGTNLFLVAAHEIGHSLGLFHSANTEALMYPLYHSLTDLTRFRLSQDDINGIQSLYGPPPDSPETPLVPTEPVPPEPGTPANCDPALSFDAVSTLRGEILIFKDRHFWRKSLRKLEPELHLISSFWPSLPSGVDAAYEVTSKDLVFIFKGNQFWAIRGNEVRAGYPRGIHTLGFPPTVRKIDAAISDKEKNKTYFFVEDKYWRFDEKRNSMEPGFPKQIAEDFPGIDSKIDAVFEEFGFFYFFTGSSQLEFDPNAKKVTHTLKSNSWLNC
Source text: The reaction was stopped by addition of soybean trypsin inhibitor (SBTI; 5:1 w/w to trypsin concentration).
as §1

MMP-3 = settings: WO 9615096 examples; cited from earlier work
[4] = Stability of hydroxy acids as solids and in aged solutions (spontaneous lactonization); assay type: physicochemical; settings: for stability as solids: purified crystalline hydroxy acids
Source text: This was evidenced by the chemical shift of H-4 on the 4S lactone at δ5.40 ppm and that on the 4R lactone at δ5.65 ppm. The hydroxy acid that converted to the 2S, 4R lactone was thus identified as the 2S, 4R hydroxy acid (Example 1) and that which converted to the 2S, 4S lactone was identified as the 2S, 4S hydroxy acid (Example 2).

[5] = system: human ovarian carcinoma xenografts; settings: mice bearing human ovarian carcinoma xenografts; cited from earlier work

T1 sequence (P14780 107-707 limits assumed): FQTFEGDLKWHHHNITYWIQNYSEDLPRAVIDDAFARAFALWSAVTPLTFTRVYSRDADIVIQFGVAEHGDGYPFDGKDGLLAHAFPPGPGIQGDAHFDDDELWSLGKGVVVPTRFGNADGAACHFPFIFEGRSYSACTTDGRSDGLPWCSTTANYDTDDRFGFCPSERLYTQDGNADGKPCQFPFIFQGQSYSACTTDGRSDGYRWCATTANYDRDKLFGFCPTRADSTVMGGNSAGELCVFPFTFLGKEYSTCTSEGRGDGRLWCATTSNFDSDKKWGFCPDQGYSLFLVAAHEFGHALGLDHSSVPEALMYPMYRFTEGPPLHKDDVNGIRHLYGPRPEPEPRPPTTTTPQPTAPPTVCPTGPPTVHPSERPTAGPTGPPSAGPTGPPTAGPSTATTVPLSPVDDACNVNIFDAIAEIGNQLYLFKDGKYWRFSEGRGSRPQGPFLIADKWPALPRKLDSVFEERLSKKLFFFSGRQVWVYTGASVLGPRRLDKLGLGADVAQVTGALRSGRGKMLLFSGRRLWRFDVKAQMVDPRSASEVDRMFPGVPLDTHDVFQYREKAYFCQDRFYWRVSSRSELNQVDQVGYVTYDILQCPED

Structure (SMILES) | IC50 [1] | IC50 [2] | IC50 [3] | further results
O=C(C[C@H](CSc1ccccc1)C(=O)O)c1ccc(-c2ccc(Cl)cc2)cc1 | 492 nM | 20 nM |  | 
O=C(C[C@H](CSc1ccc(O)cc1)C(=O)O)c1ccc(-c2ccc(Cl)cc2)cc1 | 115 nM | 3 nM | 155 nM | 
O=C(C[C@H](CCCc1ccccc1)C(=O)O)c1ccc(-c2ccc(Cl)cc2)cc1 | 209 nM | 34 nM | 108 nM | 
CC(C)CC(CC(O)c1ccc(-c2ccc(Cl)cc2)cc1)C(=O)O (single isomer, unassigned) [Example 33] |  |  |  | potency as MMP-3 inhibitors relative to corresponding 4-biphenyl-4-oxobutyric acid derivatives (MMP-3): less potent
CC(C)CC(CC(O)c1ccc(-c2ccc(Cl)cc2)cc1)C(=O)O (single isomer, unassigned) [Example 34] |  |  |  | potency as MMP-3 inhibitors relative to corresponding 4-biphenyl-4-oxobutyric acid derivatives (MMP-3): less potent
O=C(O)[C@@H](CCCc1ccccc1)CC(O)c1ccc(-c2ccc(Cl)cc2)cc1 (single isomer, unassigned) [drawing 38] | 82 nM | 9.4 nM | 50 nM | 
O=C(O)[C@@H](CCCc1ccccc1)CC(O)c1ccc(-c2ccc(Cl)cc2)cc1 (single isomer, unassigned) [drawing 39] | 369 nM | 46 nM | 1200 nM | 
O=C(O)[C@@H](CSc1ccccc1)C[C@@H](O)c1ccc(-c2ccc(Cl)cc2)cc1 [Example 1, [2S, 4R]-4-[4-(4-chlorophenyl)phenyl]-4R-hydroxy-2-(phenylthiomethyl)butanoic acid] |  |  |  | spontaneous lactonization in aged solutions [4]: slowly showed one or other of the lactones as a result of spontaneous lactonization; stability as solids [4]: relatively stable as solids
O=C(O)[C@@H](CSc1ccccc1)C[C@H](O)c1ccc(-c2ccc(Cl)cc2)cc1 [Example 2, [2S, 4S]-4-[4-(4-chlorophenyl)phenyl]-4-hydroxy-2-(phenylthiomethyl)butanoic acid] |  |  |  | spontaneous lactonization in aged solutions [4]: slowly showed one or other of the lactones as a result of spontaneous lactonization; stability as solids [4]: relatively stable as solids
CNC(=O)[C@H](Cc1ccccc1)NC(=O)[C@H](CC(C)C)[C@H](CSc1cccs1)C(=O)NO [batimastat] |  |  |  | survival [5]: prolongs the survival
O=C(O)[C@@H](CSc1ccccc1)C[C@@H](O)c1ccc(-c2ccc(Cl)cc2)cc1 [drawing 35] | 58 nM | 2.8 nM | 34 nM | 
O=C(O)[C@@H](CSc1ccccc1)C[C@H](O)c1ccc(-c2ccc(Cl)cc2)cc1 [drawing 36] | 890 nM | 62 nM | 1550 nM | 
